Data reported in patent publication US20230053540A1, “TREATMENT OF LIVER INJURY” (Massachusetts Institute of Technology, priority 2019, published 2023).

Tested on: hepatocytes
Experiment: Seq-Well scRNA-Seq of hepatocytes after APAP overdose (signature scores, DEG vs untreated)
Assay type: in vivo, mouse
Conditions: APAP vs UT

CC(=O)Nc1ccc(O)cc1 [APAP, acetaminophen]
Apobec1 logFC: 0.3051 | Apol7a logFC: −0.4923 | App logFC: 0.3618 | Arcn1 logFC: 0.3278 | Arl4d logFC: −0.5072 | Asgr1 logFC: −0.3857 | Atox1 logFC: −0.4462 | Atp5e logFC: −0.6502 | Atp5f1 logFC: −0.5171 | Atp5j2 logFC: −0.5131 | Atp5j logFC: −0.4837 | Atp8b1 logFC: 0.3628 | Atxn1 logFC: 0.3049 | BC005537 logFC: 0.3543 | Baz1a logFC: 0.2596 | Bcl3 logFC: 0.289 | Blvrb logFC: −0.5451 | Btg1 logFC: 0.458 | Btg2 logFC: 0.8321 | C1qa logFC: 0.5148 | C1qc logFC: 0.5861 | C8a logFC: 0.3337 | Calm1 logFC: 0.4131 | Calu logFC: 0.3041 | Canx logFC: 0.3434 | Cat logFC: 0.2626 | Cd44 logFC: 0.3037 | Cd53 logFC: 0.2656 | Cd74 logFC: 0.4539 | Cd97 logFC: 0.3458 | Cd302 logFC: −0.5499 | Cebpb logFC: −0.4716 | Ces1e logFC: 0.2656 | Ces3b logFC: −0.3664 | Cfh logFC: 0.4009 | Cfhr2 logFC: −0.4485 | Cfi logFC: 0.2516 | Cfp logFC: 0.3562 | Chchd2 logFC: −0.5525 | Chic2 logFC: 0.4198 | Cldn14 logFC: 0.3645 | Clpx logFC: −0.4047 | Cltc logFC: 0.785 | Cmah logFC: 0.3616 | Cmbl logFC: −0.4427 | Cml1 logFC: −0.6142 | Cml2 logFC: −0.3979 | Copa logFC: 0.3451 | Cox5b logFC: −0.4988 | Cox7a2 logFC: −0.6503 | Cox7b logFC: −0.6422 | Cpb2 logFC: 0.3222 | Cps1 logFC: 0.3245 | Crp logFC: −0.5069 | Csde1 logFC: 0.3269 | Ctsd logFC: 0.2579 | Ctsl logFC: 0.5301 | Cxadr logFC: 0.6985 | Cyb5b logFC: −0.4233 | Cyb5r3 logFC: 0.339 | Cyp4a12a logFC: −0.4568 | Cytip logFC: 0.2676 | Dcxr logFC: −0.4409 | Ddt logFC: −0.5222 | Ddx3x logFC: 0.6569 | Ddx5 logFC: 0.5229 | Ddx21 logFC: 0.7314 | Dgkd logFC: 0.3708 | Dhrs3 logFC: −0.4676 | Dio1 logFC: −0.5453 | Dkc1 logFC: 0.3258 | Dnajc12 logFC: 0.3221 | Dot1l logFC: 0.397 | Dst logFC: 0.511 | Dstn logFC: 0.3243 | Dusp6 logFC: 0.5916 | Dusp16 logFC: 0.4605 | Eaf1 logFC: 0.5218 | Ebpl logFC: −0.4503 | Eef1b2 logFC: −0.3173 | Eef2 logFC: 0.5259 | Efna1 logFC: 0.3361 | Eif1a logFC: 0.7953 | Eif4g1 logFC: 0.3749 | Epas1 logFC: 0.7758 | Epb4.1 logFC: 0.5628 | Errfi1 logFC: 0.3937 | Etf1 logFC: 0.5594 | Etfb logFC: −0.3655 | Etnk1 logFC: 0.3521 | F5 logFC: 0.3006 | Fabp2 logFC: −0.6156 | Fcgr3 logFC: 0.3082 | Fcna logFC: 0.3774 | Fdx1 logFC: −0.6234 | Fgl2 logFC: 0.2818 | Fkbp5 logFC: 0.5161 | Fndc3b logFC: 0.4096 | Fos logFC: 0.432 | Fxyd1 logFC: −0.4799 | Gamt logFC: −0.5603 | Gas5 logFC: −0.3362 | Gchfr logFC: −0.5548 | Gclm logFC: 0.2699 | Gjb2 logFC: 0.6082 | Glyat logFC: −0.6477 | Gm4076 logFC: −0.3255 | Gm4952 logFC: −0.4987 | Gm5096 logFC: −0.3631 | Gm23388 logFC: 0.4162 | Gm24187 logFC: 0.4319 | Gm26917 logFC: 0.8237 | Gnl2 logFC: 0.3905 | Gnl3 logFC: 0.576 | Gpt2 logFC: 0.5391 | Gsta2 logFC: 0.2522 | Gstm3 logFC: −0.5986 | Gstz1 logFC: −0.4641 | Gulo logFC: −0.8017 | H2-Aa logFC: 0.3279 | H2-Ab1 logFC: 0.461 | H2-Eb1 logFC: 0.3279 | H3f3b logFC: 0.7029 | Haao logFC: −0.5912 | Hacl1 logFC: −0.7069 | Hadha logFC: 0.2509 | Hal logFC: 0.2801 | Hao1 logFC: 0.323 | Hc logFC: 0.3679 | Heatr1 logFC: 0.406 | Hebp1 logFC: −0.6354 | Hes6 logFC: −0.5613 | Hibadh logFC: −0.4994 | Hic2 logFC: 0.2898 | Hif1a logFC: 0.5169 | Hint2 logFC: −0.4243 | Hook1 logFC: 0.3274 | Hpd logFC: −0.5182 | Hpgd logFC: −0.3878 | Hpx logFC: −0.3033 | Hs3st3b1 logFC: 0.343 | Hsd17b2 logFC: −0.5959 | Hspa13 logFC: 0.3548 | Hspb8 logFC: 0.6339 | Hspe1 logFC: −0.4807 | Ibtk logFC: 0.3311 | Ier5 logFC: 0.289 | Ifitm3 logFC: −0.4251 | Igfbp1 logFC: 1.059 | Igfbp2 logFC: −0.3451 | Il6st logFC: 0.3335 | Il13ra1 logFC: 0.303 | Inmt logFC: −0.731 | Insig1 logFC: 0.4655 | Ipo7 logFC: 0.3246 | Itgb2 logFC: 0.2723 | Itih2 logFC: 0.5011 | Jak1 logFC: 0.6039 | Jmjd1c logFC: 0.6366 | Kctd3 logFC: 0.2608 | Keg1 logFC: −0.8245 | Klf15 logFC: −0.4518 | Kmo logFC: −0.3844 | Lactb2 logFC: −0.5965 | Laptm5 logFC: 0.3382 | Lcn2 logFC: 0.4122 | Leap2 logFC: −0.6713 | Lect2 logFC: −0.627 | Lgmn logFC: 0.4846 | Lgr4 logFC: 0.269 | Lman1 logFC: 0.2986 | Lmo4 logFC: 0.3205 | Lonp2 logFC: −0.4674 | Lpin1 logFC: 0.2775 | Lrp1 logFC: 0.5051 | Lrrc59 logFC: 0.3772 | Lrrfip1 logFC: 0.4459 | Lyst logFC: 0.4093 | Maff logFC: 0.3553 | Mak16 logFC: 0.3171 | Malat1 logFC: 0.9206 | Manf logFC: 0.4689 | Map2k3 logFC: 0.4347 | Mbl1 logFC: −0.713 | Mcm10 logFC: −0.4874 | Mdn1 logFC: 0.318 | Minos1 logFC: −0.4555 | Mlec logFC: 0.3246 | Mmp14 logFC: 0.2889 | Mpc1 logFC: −0.2818 | Mpc2 logFC: −0.4828 | Mrpl14 logFC: −0.459 | Msn logFC: 0.2602 | Msrb1 logFC: −0.599 | Mug2 logFC: 0.3704 | Mup2 logFC: 1 | Myo1e logFC: 0.6143 | Nab1 logFC: 0.3342 | Ndufa6 logFC: −0.6136 | Ndufa7 logFC: −0.5559 | Ndufa13 logFC: −0.4388 | Ndufb2 logFC: −0.5772
